Source: patent publication US12522593B2, “Azacycloalkyl carbonyl cyclic amine compound” (Alivexis, Inc., priority 2022, dated 2026)

Experiments:
[1] = target: human recombinant CTSC (Homo sapiens (Human), UniProt P53634); test: CTSC inhibition assay (in vitro), fluorescent substrate GF-AFC; assay type: biochemical; conditions: 30 μmol/L GF-AFC, pH 5.0, 25° C.
Method: 1. CTSC Inhibition Assay (In Vitro)
A test specimen was evaluated by a CTSC inhibition assay using a fluorescent substrate GF-AFC (Gly-Phe-7-Amino-4-trifluoromethylcoumarin, MP Biomedical, 03AFC03325). Since the GF-AFC is converted by CTSC to aminotrifluoromethylcoumarin having a specific fluorescence wavelength and the produced amount is proportional to CTSC activity, quantitative analysis was performed by measuring a fluorescence intensity with a plate reader. CTSC inhibition assay for each compound was performed using a polystyrene-made non-adhesive surface-treated black 384 well plate under the following conditions.
A human recombinant CTSC (R&D systems, 1071-CY) was dissolved in a CTSC active cocktail (20 ng/mL of human recombinant cathepsin L (R&D systems, 952-CY, 25 mmol/L MES/NaOH (pH: 6.0), 5 mmol/L dithiothreitol (DTT)) so as to be 100 ng/mL and incubated at 18° C. for 30 minutes. The solution was diluted with a CTSC assay buffer (50 mmol/L MES/NaOH (pH: 5.0), 50 mmol/L NaCl, 0.001% Triton X-100, mmol/L DTT) so as to be 2 ng/mL in a case of performing CTSC inhibition assay.
The test specimen was dissolved in dimethylsulfoxide (DMSO) at 10 mmol/L to prepare a stock solution. In a case where a solution in which the stock solution was diluted 15-fold with DMSO was used as the maximum evaluation concentration (0.667 mmol/L), 5-fold dilution was repeated in DMSO from the solution to prepare a serially diluted solution. 248.8 μL of the CTSC assay buffer was added to 1.12 μL of the serially diluted sample prepared in the DMSO to prepare a solution of a CTSC inhibition assay compound.
The final composition of the CTSC inhibition assay mixture was 0.66 ng/mL activated CTSC, 50 mmol/L MES/NaOH (pH: 5.0), 50 mmol/L NaCl, 0.001% Triton X-100, 5 mmol/L DTT, 30 μmol/L GF-AFC, and 0.15% DMSO, and the procedure was as follows. That is, 4 μL of the compound solution and 4 μL of the 2 ng/mL activated CTSC solution were mixed with each other in a 384 well plate and incubated at 25° C. for 30 minutes. Thereafter, 4 μL of the GF-AFC solution dissolved in the CTSC assay buffer was added to the mixture so as to be 90 μmol/L. After mixing to be uniform, a fluorescence emission intensity at 505 nm in a case of being excited at 390 nm after incubating at 25° C. for 1 hour was measured with a plate reader. A 4-parameter regression analysis was performed with GraphPad Prism (manufactured by GraphPad Software) from a plot of the fluorescence intensity at 505 nm and the sample concentration, and an IC50 value was calculated.
Results of test compounds of Formula (I) are shown in Table 1 as IC50 (nM) values for which 50% inhibition concentration is calculated based on CTSC inhibition (%). In the table, Ex indicates an example number.

[2] = target: CTSC in U937 cells (Homo sapiens (Human), UniProt P53634); test: Intracellular CTSC inhibition assay (in vitro), LLOMe-induced cell death in U937 cells; assay type: cell-based; conditions: 3 hours culture, CellTiter-Glo
Chain of CTSC in U937 cells (P53634 25-463): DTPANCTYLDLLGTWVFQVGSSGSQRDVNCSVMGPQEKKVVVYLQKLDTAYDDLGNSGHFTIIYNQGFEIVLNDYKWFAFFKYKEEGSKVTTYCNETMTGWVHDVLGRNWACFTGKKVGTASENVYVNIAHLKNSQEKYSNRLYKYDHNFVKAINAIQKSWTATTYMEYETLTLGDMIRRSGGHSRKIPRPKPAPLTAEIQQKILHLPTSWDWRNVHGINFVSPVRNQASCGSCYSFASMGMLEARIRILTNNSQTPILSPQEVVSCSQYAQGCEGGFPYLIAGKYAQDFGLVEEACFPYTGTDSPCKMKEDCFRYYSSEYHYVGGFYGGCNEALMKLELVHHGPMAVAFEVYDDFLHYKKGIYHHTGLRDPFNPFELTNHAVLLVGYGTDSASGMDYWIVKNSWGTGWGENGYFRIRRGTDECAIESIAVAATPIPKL
Method: 2. Intracellular CTSC Inhibition Assay (In Vitro)
A test specimen was evaluated by a degree of cell death in a case where a substrate LLOMe (L-Leucyl-L-Leucine methyl ester, hydrobromide salt, Sigma, 555045152) was added to U937 cells. The LLOMe is taken up into the cells by endocytosis and cleaved by CTSC. A product thereof induces lysosomal damage in cells and causes cell death in leukocytes and the like. Therefore, since the degree of cell death correlates with an amount of degradation of LLOMe, that is, with CTSC activity, by quantitatively analyzing the cell death, CTSC inhibitory activity of the test specimen in the cell was determined. CTSC inhibition assay was performed using a polystyrene-made white 384 well plate.
As the test specimen, a stock solution dissolved in DMSO was prepared so as to be 0.2 mmol/L, and in a case where a solution in which the stock solution was diluted 50-fold with a RPMI-1640 medium including 10% FBS was used as the maximum evaluation concentration (4000 nmol/L), a serially diluted solution was prepared by diluting the solution 3-fold with the medium. Thereafter, a 4-fold concentrated test specimen solution with the target final concentration was prepared.
U937 cells were cultured in a RPMI-1640 medium including 10% FBS, and diluted to prepare 90,000 cells/mL of cell suspension on the day of assay. 10 μL of the cell suspension was seeded per well. Next, 10 μL of the test specimen solution having a concentration 4 times the target final concentration was added thereto, and the mixture was allowed to stand for 30 minutes. Thereafter, 20 μL of a 300 μmol/L LLOMe solution dissolved in a RPMI-1640 medium including 10% FBS was added thereto, and the cells were cultured for 3 hours. After completion of the culture, 40 μL of CellTiter-Glo (registered trademark) reagent (Promega, G7570) was added to each well and mixed. After 15 minutes, 20 μL of the reaction solution in each well was transferred to a white 384 well plate, and a chemiluminescence intensity was measured with a plate reader. A 4-parameter regression analysis was performed with GraphPad Prism (manufactured by GraphPad Software) from a plot of the luminescence intensity and the sample concentration, and an IC50 value was calculated.
Results of test compounds of Formula (1) are shown in Table 2 as IC50 (nM) values for which 50% inhibition concentration is calculated based on CTSC inhibition (%). In the table, Ex indicates an example number.

Chain of human recombinant CTSC (P53634 25-134): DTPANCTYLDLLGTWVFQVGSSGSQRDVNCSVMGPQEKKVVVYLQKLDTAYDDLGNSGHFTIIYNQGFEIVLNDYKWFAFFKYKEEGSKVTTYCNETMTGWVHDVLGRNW
Chain of human recombinant CTSC (P53634 231-394): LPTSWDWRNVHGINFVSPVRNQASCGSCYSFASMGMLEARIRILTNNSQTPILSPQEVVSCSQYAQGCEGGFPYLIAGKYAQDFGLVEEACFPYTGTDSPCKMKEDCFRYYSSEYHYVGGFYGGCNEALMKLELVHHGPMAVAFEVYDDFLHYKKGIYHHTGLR
Chain of human recombinant CTSC (P53634 395-463): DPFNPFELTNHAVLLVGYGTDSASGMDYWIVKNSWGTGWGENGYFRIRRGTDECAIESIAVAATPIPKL

| Compound | IC50 [1] [nM] | IC50 [2] [nM] |
| --- | --- | --- |
| CC(NC(=O)C1(C(F)(F)F)CCN(C(=O)[C@@H]2CC[C@@]3(CCO3)CN2)CC1)C1CCC(F)(F)CC1 (stereo partly shown) [Example 33] | 2.62 | 7.5 |
| O=C([C@@H]1C[C@@H](O)C2(CCC2)CN1)N1CCC(c2ccnc(N3CCC(F)(F)CC3)c2)CC1 [Example 91] | 0.84 | 0.54 |
| CC(C)C1(c2noc(C3CCC(F)(F)CC3)n2)CCN(C(=O)[C@H]2N[C@H]3CC[C@@H]2[C@H](O)C3)CC1 [Example 38] | > 200 | 124 |
| O=C([C@@H]1C[C@@H](O)C2(CCC2)CN1)N1CCC(c2cnn(-c3ccc(F)cc3)c2)CC1 [Example 93] | 3.92 | 0.77 |
| CC(C)C1(c2noc(C3CCC(F)(F)CC3)n2)CN(C(=O)[C@@H]2C[C@@H](O)C3(CCC3)CN2)C1 [Example 6] | 1.19 | 1.06 |
| O=C([C@@H]1C[C@@H](O)C2(CCC2)CN1)N1CCC(n2nnc(-c3ccc(F)cn3)n2)CC1 [Example 105] | 2.53 | 3.97 |
| CC(C)C1(c2nnc(C3CCC(F)(F)CC3)o2)CCN(C(=O)[C@@H]2C[C@@H](O)C3(CCC3)CN2)CC1 [Example 14] | 1.35 | 4 |
| O=C([C@@H]1C[C@@H](O)C2(CCC2)CN1)N1CCC(c2nc(C3CC(F)(F)C3)no2)(N2CCOCC2)CC1 [Example 65] | 4.15 | 30.1 |
| CC1(c2nc(C3(C(F)(F)F)CCN(C(=O)[C@@H]4C[C@@H](O)C5(CCC5)CN4)CC3)no2)CC(F)(F)C1 [Example 45] | 1.88 | 0.17 |
| CC(C)C1(c2noc(C3CC(F)(F)C3)n2)CCN(C(=O)[C@@H]2C[C@@H](O)C3(CCC3)CN2)CC1 [Example 5] | 1.08 | 1.01 |
| O=C([C@@H]1C[C@@H](O)C2(CCC2)CN1)N1CCC(c2noc(C3CC(F)(F)C3)n2)(C2CC2)CC1 [Example 69] | 1.73 | 1.44 |
| CC(C)C1(c2nc(C3CCC(F)(F)CC3)no2)CN(C(=O)[C@@H]2C[C@@H](O)C3(CCC3)CN2)C1 [Example 19] | 1.23 | 0.98 |
| O=C([C@@H]1C[C@@H](O)C2(CCC2)CN1)N1CCC(c2noc(C3CCCO3)n2)(C(F)(F)F)CC1 (stereo partly shown) [Example 62] | 6.39 | 1.62 |
| O=C(c1nc(C2(C(F)(F)F)CCN(C(=O)[C@@H]3C[C@@H](O)C4(CCC4)CN3)CC2)no1)N1CCC(F)(F)CC1 [Example 48] | 3.07 | 4 |
| O=C([C@@H]1C[C@@H](O)C2(CCC2)CN1)N1CCC(c2nnn(-c3ccc(F)cc3)n2)CC1 [Example 89, (4-(2-(4-Fluorophenyl)-2H-tetrazol-5-yl)piperidin-1-yl)((7S,9R)-9-hydroxy-6-azaspiro[3.5]nonan-7-yl)methanone] | 1.45 | 0.6 |
| CC(C)C1(c2noc(C3CCC(F)(F)CC3)n2)CCN(C(=O)[C@@H]2C[C@@H](O)CCN2)CC1 [Example 34] | > 1000 | > 333 |

| Compound | IC50 [1] [nM] | IC50 [2] [nM] |
| --- | --- | --- |
| O=C([C@@H]1CC[C@@]2(CCO2)CN1)N1CCC(c2nc(C3CCC(F)(F)CC3)no2)(C(F)(F)F)CC1 [Example 11] | 7.73 | 11.5 |
| O=C([C@@H]1C[C@@H](O)C2(CCC2)CN1)N1CCC(C(=O)N2CC[C@H](C(F)(F)F)C2)(C(F)(F)F)CC1 [Example 55] | 4.4 | 3.79 |
| CC1(C)CN[C@H](C(=O)N2CCC(c3noc(C4CC(F)(F)C4)n3)(C(F)(F)F)CC2)C[C@H]1O [Example 51, (4-(5-(3,3-Difluorocyclobutyl)-1,2,4-oxadiazol-3-yl)-4-(trifluoromethyl)piperidin-1-yl)((2S,4R)-4-hydroxy-5,5-dimethylpiperidin-2-yl)methanone] | 8.28 | 0.86 |
| O=C([C@@H]1C[C@@H](O)C2(CCC2)CN1)N1CCC(c2noc(C3CCC(F)(F)CO3)n2)(C(F)(F)F)CC1 (stereo partly drawn) [Example 64, (4-(5-(5,5-Difluorotetrahydro-2H-pyran-2-yl)-1,2,4-oxadiazol-3-yl)-4-(trifluoromethyl)piperidin-1-yl)((7S,9R)-9-hydroxy-6-azaspiro[3.5]nonan-7-yl)methanone] | 0.69 | 0.74 |
| CC(C)C1(c2noc(C3CCC(F)(F)CC3)n2)CCN(C(=O)C2CCC3(CCC3)CN2)CC1 (stereo not shown) [Example 42] | 7.19 | 2.28 |
| CC(C)C1(c2nc(C3CCC(F)(F)CC3)no2)CN(C(=O)[C@@H]2CC[C@@]3(CCO3)CN2)C1 [Example 21] | 2.51 | 4.78 |
| O=C([C@@H]1C[C@@H](O)C2(CCC2)CN1)N1CCC(c2noc(C3CC(F)(F)C3)n2)(c2nccs2)CC1 [Example 68] | 2.92 | 5.44 |
| CC(C)C1(c2noc(C3CCC(F)(F)CC3)n2)CCN(C(=O)[C@H]2NC3CCC2CC3)CC1 [Example 23] | 88.8 | 60.9 |
| O=C([C@@H]1C[C@@H](O)C2(CCC2)CN1)N1CCC(c2noc(C3CC(F)(F)C3)n2)(c2cccs2)CC1 [Example 70] | 1.63 | 1.1 |
| O=C([C@@H]1C[C@@H](O)C2(CCC2)CN1)N1CCC(c2nnn(C3CCC(F)(F)CC3)n2)(C(F)(F)F)CC1 [Example 66] | 1.05 | 0.46 |
| O=C([C@@H]1CC[C@@]2(CCO2)CN1)N1CCC(c2ccc(F)cc2)(c2nnc(C3CCC(F)(F)CC3)o2)CC1 [Example 87] | 3.54 | 4.02 |
| O=C([C@@H]1C[C@@H](O)C2(CCC2)CN1)N1CCC(C(=O)N2CCO[C@H](C(F)(F)F)C2)(C(F)(F)F)CC1 [Example 39] | 13.3 | 7.18 |
| O=C([C@@H]1C[C@@H](O)C2(CCC2)CN1)N1CCC(c2nnn(C3CC(F)(F)C3)n2)(C(F)(F)F)CC1 [Example 67, (4-(2-(3,3-Difluorocyclobutyl)-2H-tetrazol-5-yl)-4-(trifluoromethyl)piperidin-1-yl)((7S,9R)-9-hydroxy-6-azaspiro[3.5]nonan-7-yl)methanone] | 3.25 | 1.41 |
| CC1(C)CN(C(=O)c2nc(C3(C(F)(F)F)CCN(C(=O)[C@@H]4C[C@@H](O)C5(CCC5)CN4)CC3)no2)C1 [Example 53] | 18.7 | 11.3 |
| C[C@]1(F)C[C@H](c2nc(C3(C(F)(F)F)CCN(C(=O)[C@@H]4C[C@@H](O)C5(CCC5)CN4)CC3)no2)C1 [Example 49] | 4.43 | 0.35 |
| O=C([C@@H]1CC[C@@]2(CCO2)CN1)N1CCC(C(=O)NCC2CCC(F)(F)CC2)(C(F)(F)F)CC1 [Example 85] | 2.51 | 4.12 |
